This is an account of results in US20250123269A1 (priority 2023, published 2025).

Structures can show the parent of a compound that is named as a salt. Peptide text beside a SMILES is read from it. * marks the point of attachment. Decanoyl = CCCCCCCCCC(=O)*; CH2Cl = ClC*

Series [1] relates to WT SARS-COV-2 (USA-WA1/2020). The series is classed as cell-based.
The next series relates to SARS-COV-2 omicron JN.1. Description: microbe, parasite or virus in culture. The series is classed as cell-based. The settings on record: Severe acute respiratory syndrome coronavirus 2, 48 h; for inhibition at 36 µM: read-out: replication inhibition.
Another series has as its system SARS-COV-2. The settings on record: cited from earlier work.
In a further series the test system is SARS-COV-2 (WA1/2020). The series is classed as cell-based.
The next series relates to 229E-CoV. Description: organism not typed. In kind it is cell-based. The settings on record: for IC50: 48 h.
The target of series [2] is main protease of SARS-COV-2 (Severe acute respiratory syndrome coronavirus 2, UniProt P0DTD1). The settings on record: cited from earlier work.
The next series concerns MERS-COV. In kind it is cell-based.

Consider `O=c1nc(NO)ccn1[C@@H]1O[C@H](CO)[C@@H](O)[C@H]1O` [EIDD-1931], for which, in series [1], the “dose-dependent inhibition of infection” value is listed as “dose-dependent inhibition of infection”, the “inhibition of SARS-COV-2 infection (dose-response curve)” value (shortened to “inhibition of SARS-COV-2 infection”) is given as “strong inhibition efficacy”, the inhibition of infection entry is “complete inhibition” and the reduction of infection result is recorded as “at least 50%”.

Regarding `CCN(CC)Cc1cc(Nc2ccnc3cc(Cl)ccc23)ccc1O` [amodiaquine], in the series on SARS-COV-2 omicron JN.1, the IC50 is 12 to 12.1 µM and the inhibition at 36 µM was 80 to 95%.

Consider `CN(C)C(=O)COC(=O)Cc1ccc(OC(=O)c2ccc(NC(=N)N)cc2)cc1` [camostat mesylate], for which the “inhibition of SARS-COV-2 infection” value in series [1] is “significantly inhibited”. In the series on ACE2plusC3 cells, the cell toxicity result is “without causing cell toxicity”. For the same compound, the “SARS-COV-2-driven entry and infection” value with SARS-COV-2 is given as “significantly reduces”.

In the case of `CCN(CC)CCCC(C)Nc1ccnc2cc(Cl)ccc12` (stereo not drawn) [chloroquine], in the series with SARS-COV-2 omicron JN.1, the IC50 lay within 12 to 12.1 µM and the inhibition at 36 µM lay in the range of 80 to 95%.

For the compound `CCCCCCCCCC(=O)N[C@@H](CCCN=C(N)N)C(=O)N[C@H](C(=O)N[C@@H](CCCCN)C(=O)N[C@@H](CCCN=C(N)N)C(=O)CCl)C(C)C` [decanoyl-RVKR-CMK] (Decanoyl-RVKR-CH2Cl), the “inhibition of infection by immunofluorescence” value in series [1] is on record as “moderate inhibition of infection”. The “inhibition of infection by plaque assay (viral titer)” value in the series with SARS-COV-2 (WA1/2020) was “moderate inhibition of infection”.

On to `Cn1cnc(Cn2c(=O)[nH]/c(=N\c3cc4cn(C)nc4cc3Cl)n(Cc3cc(F)c(F)cc3F)c2=O)n1` [ensitrelvir], for which the “inhibitory effect on infected cells” value with 229E-CoV is recorded as “no inhibitory effect”.

With `CCCCN(CCCC)CCC(O)c1cc2c(Cl)cc(Cl)cc2c2cc(C(F)(F)F)ccc12` (stereo not drawn) [halofantrine], in the series with SARS-COV-2 omicron JN.1, it took 4 µM to reach half-maximal inhibition (IC50) and the inhibition at 36 µM is 80 to 95%. Also, the “binding to main protease” value in series [2] is on record as “effectively binds”.

For the compound `Cc1c(O)cccc1C(=O)N[C@@H](CSc1ccccc1)[C@H](O)CN1C[C@H]2CCCC[C@H]2C[C@H]1C(=O)NC(C)(C)C` [nelfinavir], in series [1], the “dose-dependent inhibition of infection” value is listed as “dose-dependent inhibition of infection”; the “inhibition of SARS-COV-2 infection” value was “potent and dose-dependent inhibition of infection”; the inhibition of infection entry is reported as “did not completely inhibit infection”. Further, the “concentration with increased toxicity” value with ACE2plusC3 cells (human) was at least 25 µM.

As to `CC(C)(C)[C@H](NC(=O)C(F)(F)F)C(=O)N1C[C@H]2[C@@H]([C@H]1C(=O)N[C@H](C#N)C[C@@H]1CCNC1=O)C2(C)C` [nirmatrelvir, Nirmatrelvir], in series [1], the “dose-dependent inhibition of infection” value is on record as “dose-dependent inhibition of infection”, the “inhibition of SARS-COV-2 infection” value is reported as “strong inhibition efficacy” and the inhibition of infection entry was “nearly completely inhibited”. Moreover, the CPE inhibition entry in the series with MERS-COV is reported as “approximately 90%”. For the same compound, the IC50 with 229E-CoV was 0.818 to 1.03 µM.

With `N#C[C@H](C[C@@H]1CCCNC1=O)NC(=O)[C@H](CC1CC1)NC(=O)c1cc2cccc(Cl)c2[nH]1` [pomotrelvir], in the series on 229E-CoV, the IC50 was 0.818 to 1.03 µM.
